What all share (assay): DSF 100 kinase selectivity screen;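 also: compound tested at 20 µM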
Common to all, as to format: binding

In assay [1] the target is T1, ~100 representative kinases (Homo sapiens, UniProt O14936).
T1 construct: Recombinant protein kinase domains with a concentration of 2 μM
T1 sequence (O14936 1-926): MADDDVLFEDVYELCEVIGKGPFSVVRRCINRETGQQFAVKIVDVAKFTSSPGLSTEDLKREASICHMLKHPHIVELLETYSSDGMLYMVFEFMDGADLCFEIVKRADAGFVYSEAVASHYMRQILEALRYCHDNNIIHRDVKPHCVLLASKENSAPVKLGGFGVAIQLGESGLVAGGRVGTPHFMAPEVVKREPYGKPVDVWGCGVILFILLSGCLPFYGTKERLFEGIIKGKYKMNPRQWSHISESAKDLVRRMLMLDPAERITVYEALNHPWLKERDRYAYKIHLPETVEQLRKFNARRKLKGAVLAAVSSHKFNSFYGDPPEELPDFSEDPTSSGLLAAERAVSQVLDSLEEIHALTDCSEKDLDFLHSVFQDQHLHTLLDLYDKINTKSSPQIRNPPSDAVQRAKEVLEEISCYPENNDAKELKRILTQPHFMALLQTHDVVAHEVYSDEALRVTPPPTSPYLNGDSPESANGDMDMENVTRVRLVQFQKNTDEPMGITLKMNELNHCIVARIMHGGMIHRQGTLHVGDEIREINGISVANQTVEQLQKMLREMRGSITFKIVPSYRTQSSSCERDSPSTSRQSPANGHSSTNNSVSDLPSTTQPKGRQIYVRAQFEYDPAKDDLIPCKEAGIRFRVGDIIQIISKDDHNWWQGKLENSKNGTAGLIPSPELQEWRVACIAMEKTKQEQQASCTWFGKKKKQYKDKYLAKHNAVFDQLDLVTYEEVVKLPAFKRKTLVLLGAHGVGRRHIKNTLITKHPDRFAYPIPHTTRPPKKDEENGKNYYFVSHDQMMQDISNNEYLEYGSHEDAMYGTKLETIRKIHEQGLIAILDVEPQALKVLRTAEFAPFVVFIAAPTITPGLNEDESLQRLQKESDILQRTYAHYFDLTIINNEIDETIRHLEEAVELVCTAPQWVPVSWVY
The following applies: Protein CASK; average of three replicates. An outline of the steps:
(§1)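 Each kinase domain, at 2 μM, is mixed with 20 μM test compound and SYPRO Orange in Hepes (20 mM, pH 7.5) with 500 mM NaCl. Temperature is then raised at 3°C/min and fluorescence-monitored unfolding yields the melting temperature change, ΔTm in degrees Celsius.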

Assay [2] deals with T2, ~100 representative kinases (Homo sapiens, UniProt P51955).
T2 construct: Recombinant protein kinase domains with a concentration of 2 μM
T2 sequence (P51955 1-445): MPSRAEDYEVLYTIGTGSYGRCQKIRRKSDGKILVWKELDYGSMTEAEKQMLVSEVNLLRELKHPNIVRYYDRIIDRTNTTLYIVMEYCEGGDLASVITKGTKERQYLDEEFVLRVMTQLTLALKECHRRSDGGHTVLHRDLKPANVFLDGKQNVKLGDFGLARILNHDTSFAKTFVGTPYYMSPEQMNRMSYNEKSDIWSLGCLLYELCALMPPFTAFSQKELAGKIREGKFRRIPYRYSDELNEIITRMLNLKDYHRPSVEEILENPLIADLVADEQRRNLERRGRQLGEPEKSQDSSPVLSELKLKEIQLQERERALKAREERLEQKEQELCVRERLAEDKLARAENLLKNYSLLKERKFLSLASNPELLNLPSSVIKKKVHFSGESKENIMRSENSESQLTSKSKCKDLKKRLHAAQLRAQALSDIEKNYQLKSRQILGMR
The following applies: protein NEK2; average of three replicates. An outline of the steps: as §1

Assay [3] has as its target T3, ~100 representative kinases (Homo sapiens, UniProt Q00536).
T3 construct: Recombinant protein kinase domains with a concentration of 2 μM
The following applies: protein PCTK1; average of three replicates. An outline of the steps:
as §1

The target of assay [4] is T4, ~100 representative kinases (Homo sapiens, UniProt Q15375).
T4 construct: Recombinant protein kinase domains with a concentration of 2 μM
Conditions: Protein EPHA7; average of three replicates. An outline of the steps:
as §1

Assay [5] concerns the target T5, ~100 representative kinases (Homo sapiens, UniProt Q8IU85).
T5 construct: Recombinant protein kinase domains with a concentration of 2 μM
Conditions: Protein CAMK1D; average of three replicates. In outline:
as §1

In assay [6] the target is T6, ~100 representative kinases (Homo sapiens, UniProt Q9P289).
T6 construct: Recombinant protein kinase domains with a concentration of 2 μM
The following applies: protein MST4; average of three replicates. In outline: as §1

Assay [7] concerns the target T7, ~100 representative kinases (Homo sapiens, UniProt Q9UEE5).
T7 construct: Recombinant protein kinase domains with a concentration of 2 μM
T7 sequence (Q9UEE5 1-414): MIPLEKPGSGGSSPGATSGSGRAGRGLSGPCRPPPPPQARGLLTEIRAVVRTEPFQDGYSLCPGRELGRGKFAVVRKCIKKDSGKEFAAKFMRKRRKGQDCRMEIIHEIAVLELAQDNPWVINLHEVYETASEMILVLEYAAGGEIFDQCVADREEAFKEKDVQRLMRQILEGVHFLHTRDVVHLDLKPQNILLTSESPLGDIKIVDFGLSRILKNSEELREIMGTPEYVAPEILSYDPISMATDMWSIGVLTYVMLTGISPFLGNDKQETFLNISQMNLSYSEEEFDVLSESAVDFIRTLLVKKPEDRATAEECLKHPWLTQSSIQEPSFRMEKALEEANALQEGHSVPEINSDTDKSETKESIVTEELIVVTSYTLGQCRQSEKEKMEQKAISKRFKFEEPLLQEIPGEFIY
Conditions: Protein STK17A; DSF; average of three replicates. In outline: as §1

The results in this text go back to article PMC12136037, “Type II kinase inhibitors that target Parkinson’s disease–associated LRRK2” (Science Advances, 2025).

T3 sequence (Q00536 whole entry, the tested form may be a part): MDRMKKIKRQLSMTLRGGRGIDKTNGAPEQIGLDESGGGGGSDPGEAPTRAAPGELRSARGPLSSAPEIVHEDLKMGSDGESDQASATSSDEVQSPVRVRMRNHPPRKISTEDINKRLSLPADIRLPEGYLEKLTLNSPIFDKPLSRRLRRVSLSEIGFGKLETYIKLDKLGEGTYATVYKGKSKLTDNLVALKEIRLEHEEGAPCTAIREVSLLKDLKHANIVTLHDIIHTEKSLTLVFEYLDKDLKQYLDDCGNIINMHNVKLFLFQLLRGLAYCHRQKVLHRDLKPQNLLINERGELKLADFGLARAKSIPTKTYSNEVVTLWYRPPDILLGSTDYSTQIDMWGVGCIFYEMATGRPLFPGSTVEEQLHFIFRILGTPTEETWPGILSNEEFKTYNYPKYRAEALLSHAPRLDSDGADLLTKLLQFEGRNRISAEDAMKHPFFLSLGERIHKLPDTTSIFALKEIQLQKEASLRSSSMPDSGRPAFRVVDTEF
T5 sequence (Q8IU85 whole entry, the tested form may be a part): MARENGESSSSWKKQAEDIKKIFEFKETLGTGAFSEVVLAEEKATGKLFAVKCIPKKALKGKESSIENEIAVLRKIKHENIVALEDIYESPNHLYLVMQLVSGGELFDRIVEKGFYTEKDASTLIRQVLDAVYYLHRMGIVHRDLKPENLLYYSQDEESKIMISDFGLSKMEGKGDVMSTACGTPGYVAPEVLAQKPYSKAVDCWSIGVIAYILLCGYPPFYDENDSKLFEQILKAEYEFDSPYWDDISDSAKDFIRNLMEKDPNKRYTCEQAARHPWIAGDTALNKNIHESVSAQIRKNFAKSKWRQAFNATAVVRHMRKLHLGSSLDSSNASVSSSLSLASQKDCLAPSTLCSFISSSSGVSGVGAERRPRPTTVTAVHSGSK
T4 sequence (Q15375 28-998): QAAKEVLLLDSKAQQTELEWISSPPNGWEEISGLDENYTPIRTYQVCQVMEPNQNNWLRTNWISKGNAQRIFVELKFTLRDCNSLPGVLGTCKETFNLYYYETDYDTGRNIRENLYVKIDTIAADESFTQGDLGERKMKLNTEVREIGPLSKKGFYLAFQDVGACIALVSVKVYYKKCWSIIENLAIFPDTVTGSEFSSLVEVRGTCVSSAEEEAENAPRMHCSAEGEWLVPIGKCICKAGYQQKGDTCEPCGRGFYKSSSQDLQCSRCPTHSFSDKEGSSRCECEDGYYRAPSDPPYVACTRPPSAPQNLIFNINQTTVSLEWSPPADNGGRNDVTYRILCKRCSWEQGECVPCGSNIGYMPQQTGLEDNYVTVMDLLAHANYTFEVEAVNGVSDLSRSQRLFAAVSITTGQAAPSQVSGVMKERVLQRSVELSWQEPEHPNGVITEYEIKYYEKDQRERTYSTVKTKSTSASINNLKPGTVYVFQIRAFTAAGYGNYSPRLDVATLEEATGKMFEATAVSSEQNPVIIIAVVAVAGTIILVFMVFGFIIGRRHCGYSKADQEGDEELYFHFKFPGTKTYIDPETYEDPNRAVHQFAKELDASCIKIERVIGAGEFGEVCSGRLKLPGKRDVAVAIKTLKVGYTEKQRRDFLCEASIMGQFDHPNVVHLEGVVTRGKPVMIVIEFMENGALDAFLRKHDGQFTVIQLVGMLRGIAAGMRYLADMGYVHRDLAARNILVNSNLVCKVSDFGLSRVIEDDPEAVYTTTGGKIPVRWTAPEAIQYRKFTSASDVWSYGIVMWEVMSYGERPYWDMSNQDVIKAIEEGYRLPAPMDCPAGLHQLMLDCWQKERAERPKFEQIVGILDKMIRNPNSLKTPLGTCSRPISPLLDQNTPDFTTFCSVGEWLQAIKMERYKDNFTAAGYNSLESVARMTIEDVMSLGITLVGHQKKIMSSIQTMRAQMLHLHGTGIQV
T6 sequence (Q9P289 whole entry, the tested form may be a part): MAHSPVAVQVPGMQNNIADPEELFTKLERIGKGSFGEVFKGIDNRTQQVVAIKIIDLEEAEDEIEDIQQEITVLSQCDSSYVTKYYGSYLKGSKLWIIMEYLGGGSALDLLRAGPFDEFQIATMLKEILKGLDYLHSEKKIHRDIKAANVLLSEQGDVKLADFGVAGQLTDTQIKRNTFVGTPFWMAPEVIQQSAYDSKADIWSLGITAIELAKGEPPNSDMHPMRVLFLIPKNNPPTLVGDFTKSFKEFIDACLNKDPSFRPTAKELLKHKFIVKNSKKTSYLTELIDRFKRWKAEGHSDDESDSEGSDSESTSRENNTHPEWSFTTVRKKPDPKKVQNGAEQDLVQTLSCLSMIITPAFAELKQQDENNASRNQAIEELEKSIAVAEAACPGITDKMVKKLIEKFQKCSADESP

For `O=C(Nc1cccc(-c2c[nH]c3ncnc(N4CCOCC4)c23)c1)C1(C(=O)Nc2ccc(F)c(Cl)c2)CC1` [Compound 18], the dTm in assay [1] worked out at 0.56 K; in assay [2], 1.39 K; in assay [3], 7.39 K; in assay [4], 0.26 K; in assay [5], 1.04 K; in assay [6] it was 6.98 K. The dTm in assay [7] was 2.92 K.
Consider `CCc1ccc(NC(=O)C2(C(=O)Nc3cccc(-c4c[nH]c5ncnc(N6CCOCC6)c45)c3)CC2)cc1` [Compound 15], for which the dTm in assay [1] was 0.36 K; in assay [2], 2.27 K; in assay [3] it was 9.05 K; in assay [4] it was -2.17 K; in assay [5] it was -1.11 K; in assay [6], 2.78 K. The compound further had a dTm in assay [7] of -0.28 K.
In the case of `CCNc1nc(Nc2cc(F)c(C(=O)N3CCOCC3)cc2OC)ncc1C(F)(F)F` [GNE-7915], the dTm in assay [1] is listed as 0.33 K; in assay [2], 0.39 K; in assay [3], 0.61 K; in assay [4], -0.20 K; in assay [5], -0.16 K; in assay [6] it was 0.65 K. Moreover, the dTm in assay [7] worked out at 0.32 K.
Take `O=C(Nc1cccc(-c2c[nH]c3ncnc(N4CCOCC4)c23)c1)c1cccn(-c2ccc(F)cc2)c1=O` [Compound 4]: the dTm in assay [1] is -0.18 K; in assay [2], 0.47 K; in assay [3] it was 7.66 K; in assay [4], -1.83 K; in assay [5], -1.98 K; in assay [6], 1.45 K. Besides, the dTm in assay [7] is listed as -0.07 K.
Take `Cc1ccc(C(=O)Nc2ccc(CN3CCN(C)CC3)c(C(F)(F)F)c2)cc1C#Cc1cnc2[nH]ncc2c1` [GZD-824, reference compound]: the dTm is reported as -2.40 K in assay [1]; 0.45 K in assay [2]; 3.06 K in assay [3]; 1.51 K in assay [4]; -0.60 K in assay [5]; 8.85 K in assay [6]. For the same compound, the dTm in assay [7] came to 0.16 K.
Turning to `O=C(Nc1ccccc1)C1(C(=O)Nc2cccc(-c3c[nH]c4ncnc(N5CCOCC5)c34)c2)CC1` [Compound 12], the dTm is 0.25 K in assay [1]; 1.92 K in assay [2]; 5.02 K in assay [3]; -1.64 K in assay [4]; -1.41 K in assay [5]; 3.77 K in assay [6]. In assay [7], this compound came in with a dTm of 0.26 K.
Take `Cc1ccc(C(=O)Nc2ccc(CN3CCN(C)CC3)c(C(F)(F)F)c2)cc1C#Cc1c[nH]c2ncnc(N3CCOCC3)c12` [Compound 1]: the dTm in assay [1] is listed as 1.18 K; in assay [2], 4.11 K; in assay [3], 1.60 K; in assay [4], 1.10 K; in assay [5], 0.56 K; in assay [6] it was 4.54 K. In assay [7], this compound returned a dTm of 2.74 K.
Turning to `Cc1cc(F)ccc1NC(=O)C1(C(=O)Nc2cccc(-c3c[nH]c4ncnc(N5CCOCC5)c34)c2)CC1` [Compound 24], the dTm in assay [1] was -0.0179 K; in assay [2], 1.66 K; in assay [3], 3.77 K; in assay [4], -2.57 K; in assay [5], -2.03 K; in assay [6], 2.44 K. In addition, the dTm in assay [7] is on record as -0.51 K.
Turning to `O=C(Nc1cc(F)cc(Br)c1)C1(C(=O)Nc2cccc(-c3c[nH]c4ncnc(N5CCOCC5)c34)c2)CC1` [Compound 27], the dTm in assay [1] is recorded as 1.15 K; in assay [2], -2.11 K; in assay [3], 0.18 K; in assay [4] it was 2.33 K; in assay [5], 1.52 K; in assay [6], 3.14 K. In addition, the dTm in assay [7] is given as 1.21 K.
In the case of `O=C(Nc1ccc(Cl)cc1)C1(C(=O)Nc2cccc(-c3c[nH]c4ncnc(N5CCOCC5)c34)c2)CC1` [Compound 13], the dTm came to 0.70 K in assay [1]; 2.76 K in assay [2]; 9.13 K in assay [3]; 0.19 K in assay [4]; 0.67 K in assay [5]; 5.13 K in assay [6]. In assay [7], this compound gave a dTm of 1.64 K.
In the case of `COc1cc(S(C)(=O)=O)ccc1Nc1nc(N(C)C)c2c(Cl)c[nH]c2n1` [Compound 37], the dTm in assay [1] is recorded as -0.21 K; in assay [2] it was -1.77 K; in assay [3], -0.043 K; in assay [4] it was 0.12 K; in assay [5] it was 0.49 K; in assay [6], -1.65 K. In assay [7], the dTm is -0.19 K.
Turning to `O=C(Nc1cccc(-c2c[nH]c3ncnc(N4CCOCC4)c23)c1)C1(C(=O)Nc2ccc(F)c(F)c2)CC1` [Compound 17], the dTm in assay [1] is recorded as 0.19 K; in assay [2], 2.00 K; in assay [3] it was 5.61 K; in assay [4], -1.27 K; in assay [5] it was -0.44 K; in assay [6], 6.01 K. The same compound registered a dTm in assay [7] of 0.99 K.
For the compound `CNC(=O)c1cc(Oc2ccc(NC(=O)Nc3cc(C(C)(C)C)nn3-c3ccc4ncccc4c3)c(F)c2)ccn1` [Rebastinib, reference compound], the dTm in assay [1] is on record as -12.03 K; in assay [2], 2.06 K; in assay [3], 13.62 K; in assay [4], 3.35 K; in assay [5], 1.21 K; in assay [6], 5.29 K. The compound further returned a dTm in assay [7] of 3.53 K.
On to `O=C(Nc1cccc(-c2c[nH]c3ncnc(N4CCOCC4)c23)c1)C1(C(=O)Nc2cc(Br)c(F)cc2F)CC1` [Compound 25], for which the dTm in assay [1] is listed as 1.03 K; in assay [2], -3.69 K; in assay [3], -0.86 K; in assay [4], 2.86 K; in assay [5] it was 3.75 K; in assay [6] it was 1.80 K. In assay [7], this compound displayed a dTm of -0.61 K.
On to `CN[C@@H]1C[C@H]2O[C@@](C)([C@@H]1OC)n1c3ccccc3c3c4c(c5c6ccccc6n2c5c31)C(=O)NC4` [Staurosporine], for which the figures for the dTm in assay [2] and in assay [4] were 4.25 K and 12.09 K, respectively.
As to `Cn1cc(-c2c[nH]c3ncnc(N4CCOCC4)c23)cc1C#N` [PFE-360], the dTm in assay [1] is 0.12 K; in assay [3] it was 0.35 K; in assay [4], -0.34 K; in assay [5], -1.69 K; in assay [6] it was 1.97 K; in assay [7], 0.43 K.
